The subject of test [1] is endometrium in estrogen-primed immature rabbits. The experiment in a line: McPhail test (agonistic, progestational activity). It counts as in vivo, rabbit. Particulars: 0-4 scale; 5 days; MPA 0.05 mg/kg/day, Org 214007-0 0.5 mg/kg/day; n=2. How it is done: The McPhail (or anti-McPhail) test was used to evaluate potential progestational (or anti-progestational) activity of Org 214007-0 on the endometrium in estrogen-primed immature rabbits after once-daily administration. The female NZW rabbits were housed in pairs in a light- and temperature-controlled room, fed daily with 40 - 50 g standard pelleted food and with free access to tap-water. Before treatment with compounds rabbits were primed daily in the morning with a subcutaneous dose of 2 μg estradiol benzoate for 8 days. […] Transverse sections were prepared, stained with haematoxylin-eosin and evaluated microscopically. Endometrial development was scored on a 0-4 scale as follows: score 0: no development of glands; score 1: start of development of glands; score 2: clear-cut development of glands with ducts beginning to branch; score 3: about 2/3 of stroma bearing glandual tissue; score 4: more than 2/3 of stroma bearing glandular tissue. A score of 2 or higher in both rabbits was evaluated as a positive resonse.
For both the agonistic and antagonistic test immature female NZW rabbits (n=2 per treatment group) were primed with estrogen. […] One day after the last treatment the uterus was dissected and endometrial development was scored on a 0-4 scale. […]

For test [2], the target named is His-GR-LBD (F602S mutated). The test can be described thus: AlphaScreen or HTRF; co-factor peptide recruitment assay (Eu/APC fluorescence); 10 nM His-GR-LBD (F602S) pre-incubated 3 h at 4°C with Org 214007-0 (0.032 nM to 10 μM), then 100 nM TIF2-3 peptide, 8 nM streptavidin-APC and 1.25 nM anti-His-Eu, 20 h at 4°C.
In test [3] the test system is endometrium in estrogen-primed immature rabbits. The test can be described thus: anti-McPhail test (antagonistic, anti-progestational activity). The class given is in vivo, rabbit. Particulars: 0-4 scale; 7 days with progesterone; RU486 4 mg/kg/day, Org 214007-0 0.5 mg/kg/day oral; n=2. As to the method: For the anti-McPhail test, the estrogen-primed rabbits were subsequently treated for 7 days with inducer progesterone (0.25 mg/kg/day s.c.) in combination with an oral treatment of either placebo, reference RU486 (4 mg/kg/day) or Org 214007-0 (0.5 mg/kg/day). The uterus preparation and evaluation of the endometrium was performed as described above.
For the antagonistic test, after oestrogen priming, rabbits were treated for 7 days with progesterone and placebo, reference RU486 or Org 214007-0. One day after the last treatment the uterus was dissected and endometrial development was scored on a 0-4 scale. […] After treatment with Org 214007-0 no reduction of the endometrial transformation was observed (score 3.31), indicative for no anti-progestagenic activity

For test [4], the system named is LPS-induced TNFα release. The test can be described thus: LPS-induced TNFα acute inflammation mouse model. Particulars: RU486 50 mg/kg s.c. 30 minutes before oral compound dosing. It counts as in vivo. As to the method:
For both the LPS-induced TNFα as well as the anti-CD3 induced IL-2 model, female Balb/c mice of 8–12 week old were used. Mice were treated orally with 0.2 ml compound or vehicle (water/mannitol (5%) with 5% DMSO/5% chremophore for the LPS model or with 0.5% gelatine for the anti-CD3 model). One hour after oral treatment animals were challenged i.p. with 0.2 ml of either 20 μg/mouse LPS (Sigma, E. coli serotype 055:B5) or 5 µg/mouse hamster anti-CD3 monoclonal (BD Biosciences Pharmingen, art. nr. 553057, clone 145-2C11). Ninety minutes after LPS injection or 3 hours after anti-CD3 challenge, blood samples were collected and serum levels of TNFα or IL-2 were determined via specific ELISAs (BD Biosciences Pharmingen, San Diego, CA, USA). In the experiment that included treatment with RU486 to block GR, mice were dosed subcutaneously with 50 mg/kg RU486 30 minutes before the oral compound dosing. ED50 and % efficacy (maximal percentage inhibition of TNFα or IL-2 release) are determined using a 3 parameter sigmoidal curve calculation. Statistical analysis of the results was performed using an one-way ANOVA (log) test.

Here are results for three compounds from PMC3495945, “Org 214007-0: A Novel Non-Steroidal Selective Glucocorticoid Receptor Modulator with Full Anti-Inflammatory Properties and Improved Therapeutic Index” (PLoS ONE, 2012).

Take `CC(=O)O[C@]1(C(C)=O)CC[C@H]2[C@@H]3C[C@H](C)C4=CC(=O)CC[C@]4(C)[C@H]3CC[C@@]21C` [MPA, medroxyprogesterone acetate, reference compound]: the “endometrial development score, agonistic test” value in test [1] is 2.5. In test [2], “peptide representing Transcriptional Intermediary Factor 2 - LXXLL motif 3 (TIF2-3)” showed a percentage maximal efficacy of peptide recruitment with Org 214007-0, relative to prednisolone (100%) of 67%. Regarding `CC#C[C@]1(O)CC[C@H]2[C@@H]3CCC4=CC(=O)CCC4=C3[C@@H](c3ccc(N(C)C)cc3)C[C@@]21C` [RU486, mifepristone, reference compound], the “endometrial development score, antagonistic test” value in test [3] amounted to 0.5. Also, the “effect of RU486 on inhibition of TNFα by Org 214007-0 or prednisolone” value in test [4] was “fully antagonized”.
